# In patent US20230331675A1, “AROMATIC ETHYLENE COMPOUND AND PREPARATION METHOD THEREFOR, AND INTERMEDIATE, PHARMACEUTICAL COMPOSITION, AND APPLICATION THEREOF” (GUANGZHOU MAXINOVEL PHARMACEUTICALS CO., LTD., priority 2020, published 2023):
# Biological target: PD-1/PD-L1 (Homo sapiens (Human), UniProt Q9NZQ7)
# Test: Homogeneous time-resolved fluorescence (HTRF) binding assay
# Settings: CisBio kit, read-out: IC50 of compounds binding to PD-1/PD-L1
# Description: Effect embodiment 1: Homogenouse time-resolved fluorescence
# Homogeneous time-resolved fluorescence (HTRF) binding assay was used to determine the binding ability of the compound of the present disclosure to PD-1/PD-L1.
# The purchased kit (CisBio, #64CUS000C-1) contained reagents required for assays such as PD-1, PD-L1, anti-tag1-Eu, Anti-tag2-XL665, dilute buffer, and detection buffer.
# 1. The compound was formulated to 10 concentrations with a 3-fold gradient with 100% DMSO.
# 2. The DMSO solution of the compound was added to the dilute buffer, mixed thoroughly, then transferred to a 96-well plate.
# 3. PD-L1 was diluted with dilute buffer, then added to the above 96-well plate.
# 4. PD-1 was diluted with dilute buffer and added to the above 96-well plate, which was then incubated at room temperature for 30 minutes.
# 5. A portion of anti-tag1-Eu and a portion of anti-tag2-XL665 were added to the detection buffer, mixed thoroughly and transferred to the above 96-well plate.
# 6. The mixture in the above 96-well plate was incubated at room temperature for 1 to 24 hours.
# 7. HTRF values were read with Envision.
# PD-1/PD-L1, sequence (Q9NZQ7 19-238): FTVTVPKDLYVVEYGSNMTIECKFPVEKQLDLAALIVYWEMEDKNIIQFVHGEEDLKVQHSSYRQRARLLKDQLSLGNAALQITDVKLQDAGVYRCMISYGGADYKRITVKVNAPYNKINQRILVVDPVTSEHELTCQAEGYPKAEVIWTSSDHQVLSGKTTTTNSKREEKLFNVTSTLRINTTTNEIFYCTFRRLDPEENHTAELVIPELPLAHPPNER
row,Molecule,IC50 [nM]
1,"(S,E)-1-(2-((3-Iodobenzyloxy)-5-methyl-4-(2-(2-methyl-[1,1′-biphenyl]-3-yl)vinyl)benzyl)piperidine-2-carboxylic acid [Compound 75]",28.4
2,"Cc1cc(CN2CCCC[C@H]2C(=O)O)c(OCC#N)cc1/C=C/c1cccc(-c2ccccc2)c1C#N [Compound 48, (S,E)-1-(4-(2-(2-Cyano-[1,1′-biphenyl]-3-yl)vinyl)-2-(cyanomethoxy)-5-methylbenzyl)piperidine-2-carboxylic acid]",8
3,"Cc1cc(/C=C/c2cccc(-c3ccccc3)c2C#N)c(Cl)cc1CN1CCN(C)C[C@H]1C(=O)O [Compound 14, (S,E)-1-(5-Chloro-4-(2-(2-cyano-[1,1′-biphenyl]-3-yl)vinyl)-2-methylbenzyl)-4-methylpiperazine-2-carboxylic acid]",85.2
4,"N#Cc1c(/C=C/c2ccc(CN3CCCC[C@H]3C(=O)O)cc2C(F)(F)F)cccc1-c1ccccc1 [Compound 1, (S,E)-1-(4-(2-(2-Cyano-[1,1′-biphenyl]-3-yl)vinyl)-3-trifluoromethylbenzyl)piperidine-2-carboxylic acid]",10.2
5,Cc1cc(CN2CCCC[C@H]2C(=O)O)c(C)cc1/C=C/c1cccc(-c2ccccc2)c1C#N [Compound 10],4.2
6,"Cc1cc(CN2CCCC[C@H]2C(=O)O)c(OCCCF)cc1/C=C/c1cccc(-c2ccccc2)c1C [Compound 84, (S,E)-1-(2-(3-Fluoropropoxy)-5-methyl-4-(2-(2-methyl-[1,1′-biphenyl]-3-yl)vinyl)benzyl)piperidine-2-carboxylic acid]",8.03
7,Cc1c(/C=C/c2cc(OCc3ccc(I)cc3)c(CN3CCCC[C@H]3C(=O)O)cc2C(F)(F)F)cccc1-c1ccccc1 [Compound 78],65.5
8,"Cc1cc(OCCO)c(CN2CCOC[C@H]2C(=O)O)cc1/C=C/c1cccc(-c2ccccc2)c1C#N [Compound 42, (S,E)-4-(5-(2-(2-Cyano-[1,1′-biphenyl]-3-yl)vinyl)-2-(2-hydroxyethoxy)-4-methylbenzyl)morpholine-3-carboxylic acid]",706
9,"Cc1cc(/C=C/c2cccc(-c3ccccc3)c2C#N)c(Cl)cc1CN1CCN(C(N)=O)C[C@H]1C(=O)O [Compound 29, (S,E)-4-Carbamoyl-1-(5-chloro-4-(2-(2-cyano-[1,1′-biphenyl]-3-yl)vinyl)-2-methylbenzyl)piperazine-2-carboxylic acid]",62
10,"[2H]C([2H])([2H])OCc1cc(/C=C/c2cccc(-c3ccccc3)c2C#N)c(C(F)(F)F)cc1CN1CCOC[C@H]1C(=O)O [Compound 54, (S,E)-4-(4-(2-(2-Cyano-[1,1′-biphenyl]-3-yl)vinyl)-2-((methoxy-d3)methyl)-5-trifluoromethylbenzyl)morpholine-3-carboxylic acid]",160
11,Cc1c(/C=C/c2cc(OCc3cccc(I)c3)c(CN3CCCC[C@H]3C(=O)O)cc2C(F)(F)F)cccc1-c1ccccc1 [Compound 77],5.91
12,[2H]C([2H])([2H])c1c(/C=C/c2cc(CN[C@@](C)(CO)C(=O)O)ccc2C(F)(F)F)cccc1-c1ccccc1 [Compound 55],29.5
13,"[2H]c1c([2H])c([2H])c(-c2cccc(/C=C/c3cc(OC)c(CN4CCCC[C@H]4C(=O)O)cc3C(F)(F)F)c2C)c([2H])c1[2H] [Compound 61, (S,E)-1-(2-Methoxy-4-(2-(2-methyl-[1,1′-biphenyl]-3-yl-2′,3′,4′,5′,6′-d5)vinyl)-5-trifluoromethylbenzyl)piperidine-2-carboxylic acid]",0.73
14,"Cc1cc(CN[C@@](C)(CO)C(=O)O)c(C)cc1/C=C/c1cccc(-c2ccccc2)c1C#N [Compound 12, (S,E)-2-((4-(2-(2-Cyano-[1,1′-biphenyl]-3-yl)vinyl)-2,5-dimethylbenzyl)amino)-3-hydroxy-2-methylpropionic acid]",3.4
15,"COc1cc(/C=C(\Br)c2cccc(-c3ccccc3)c2C)c(C)cc1CNCCO [Compound 69, (Z)-2-((4-(2-Bromo-2-(2-methyl-[1,1′-biphenyl]-3-yl)vinyl)-2-methoxy-5-methylbenzyl)amino)-1-ethanol]",260
16,"COCCOc1cc(/C=C/c2cccc(-c3ccccc3)c2C#N)c(C)cc1CN1CCOC[C@H]1C(=O)O [Compound 25, (S,E)-4-(4-(2-(2-Cyano-[1,1′-biphenyl]-3-yl)vinyl)-2-(2-methoxyethoxy)-5-methylbenzyl)morpholine-3-carboxylic acid]",9.1
17,"COc1cc(/C=C/c2cccc(-c3ccccc3)c2C#N)c(Cl)cc1CN1CCCC[C@H]1C(=O)O [Compound 57, (S,E)-1-(5-Chloro-4-(2-(2-cyano-[1,1′-biphenyl]-3-yl)vinyl)-2-methoxybenzyl)piperidine-2-carboxylic acid]",4.4

row,Molecule,IC50 [nM]
1,"Cc1cc(CN2CCCC[C@H]2C(=O)O)c(OCCCCF)cc1/C=C/c1cccc(-c2ccccc2)c1C [Compound 83, (S,E)-1-(2-(4-Fluorobutoxy)-5-methyl-4-(2-(2-methyl-[1,1′-biphenyl]-3-yl)vinyl)benzyl)piperidine-2-carboxylic acid]",6.99
2,"Cc1cc(CNCC(=O)O)c(OCCCCC#N)cc1/C=C/c1cccc(-c2ccccc2)c1C#N [Compound 16, (E)-(4-(2-(2-Cyano-[1,1′-biphenyl]-3-yl)vinyl)-2-(4-cyanobutoxy)-5-methylbenzyl)glycine]",14.5
3,"COc1cc(CN2CCCC[C@H]2C(=O)O)c(OC)cc1/C=C/c1cccc(-c2ccccc2)c1C [Compound 63, (S,E)-1-(2,5-Dimethoxy-4-(2-(2-methyl-[1,1′-biphenyl]-3-yl)vinyl)benzyl)piperidine-2-carboxylic acid]",30.5
4,"Cc1c(/C=C/c2cc(OCc3ccnc(I)c3)c(CN3CCCC[C@H]3C(=O)O)cc2C(F)(F)F)cccc1-c1ccccc1 [Compound 81, (S,E)-1-(2-((2-Iodopyridin-4-yl)methoxy)-4-(2-(2-methyl-[1,1′-biphenyl]-3-yl)vinyl)-5-(trifluoromethyl)benzyl)piperidine-2-carboxylic acid]",2.13
5,Cc1cc(CN2CCCC[C@H]2C(=O)O)c(OCCO)cc1/C=C/c1cccc(-c2ccccc2)c1C#N [Compound 26],4.7
6,"COCCOc1cc(C)c(/C=C/c2cccc(-c3ccccc3)c2C#N)cc1CN1CCCC[C@H]1C(=O)O [Compound 43, (S,E)-1-(5-(2-(2-Cyano-[1,1′-biphenyl]-3-yl)vinyl)-2-(2-methoxyethoxy)-4-methylbenzyl)piperidine-2-carboxylic acid]",83.9
7,"N#Cc1c(/C=C/c2ccc(CN3CCCC[C@H]3C(=O)O)cc2Cl)cccc1-c1ccccc1 [Compound 2, (S,E)-1-(3-Chloro-4-(2-(2-cyano-[1,1′-biphenyl]-3-yl)vinyl)benzyl)piperidine-2-carboxylic acid]",26.3
8,"Cc1cc(CN2CCCC[C@H]2C(=O)O)c(OCc2cc(I)ccn2)cc1/C=C/c1cccc(-c2ccccc2)c1C [Compound 79, (S,E)-1-(2-((4-Iodo-pyridin-2-yl)methoxy)-5-methyl-4-(2-(2-methyl-[1,1′-biphenyl]-3-yl)vinyl)benzyl)piperidine-2-carboxylic acid]",5.31
9,"COc1cc(/C=C(\Br)c2cccc(-c3ccccc3)c2C)c(C)cc1CN1CCCC[C@H]1C(=O)O [Compound 68, (S,Z)-1-(4-(2-Bromo-2-(2-methyl-[1,1′-biphenyl]-3-yl)vinyl)-2-methoxy-5-methylbenzyl)piperidine-2-carboxylic acid]",169
10,"COCCOc1cc(/C=C/c2cccc(-c3ccccc3)c2C#N)c(C)cc1CN1CCNC[C@H]1C(=O)O [Compound 27, (S,E)-1-(4-(2-(2-Cyano-[1,1′-biphenyl]-3-yl)vinyl)-2-(2-methoxyethoxy)-5-methylbenzyl)piperazine-2-carboxylic acid]",57.2
11,CS(=O)(=O)CCCOc1cc(/C=C/c2cccc(-c3ccccc3)c2C#N)c(CN2CCOC[C@H]2C(=O)O)cc1Cl [Compound 37],> 10000
12,"COCCOc1cc(/C=C/c2cccc(-c3ccccc3)c2C#N)c(CN2CCCC[C@H]2C(=O)O)cc1Cl [Compound 33, (S,E)-1-(5-Chloro-2-(2-(2-cyano-[1,1′-biphenyl]-3-yl)vinyl)-4-(2-methoxyethoxy)benzyl)piperidine-2-carboxylic acid]",> 10000
13,"Cc1cc(CN2CCOC[C@H]2C(=O)O)c(OCCO)cc1/C=C/c1cccc(-c2ccccc2)c1C#N [Compound 30, (S,E)-4-(4-(2-(2-Cyano-[1,1′-biphenyl]-3-yl)vinyl)-2-(2-hydroxyethoxy)-5-methylbenzyl)morpholine-3-carboxylic acid]",7.7
14,"N#Cc1c(/C=C/c2cc(CO)c(CN3CCCC[C@H]3C(=O)O)cc2C(F)(F)F)cccc1-c1ccccc1 [Compound 20, (S,E)-1-(4-(2-(2-Cyano-[1,1′-biphenyl]-3-yl)vinyl)-2-hydroxymethyl-5-trifluoromethylbenzyl)piperidine-2-carboxylic acid]",3.7
15,"[2H]C([2H])([2H])Oc1cc(/C=C/c2cccc(-c3ccccc3)c2C)c(Cl)cc1CN1CCCC[C@H]1C(=O)O [Compound 59, (S,E)-1-(5-Chloro-2-(methoxy-d3)-4-(2-(2-methyl-[1,1′-biphenyl]-3-yl)vinyl)benzyl)piperidine-2-carboxylic acid]",8.9
16,"N#CCOc1cc(/C=C/c2cccc(-c3ccccc3)c2C#N)c(CN2CCCC[C@H]2C(=O)O)cc1Cl [Compound 47, (S,E)-1-(5-Chloro-2-(2-(2-cyano-[1,1′-biphenyl]-3-yl)vinyl)-4-(cyanomethoxy)benzyl)piperidine-2-carboxylic acid]",> 10000
